Source: publication PMC6327993, “Synthesis carbonic anhydrase enzyme inhibition and antioxidant activity of novel benzothiazole derivatives incorporating glycine, methionine, alanine, and phenylalanine moieties” (Journal of Enzyme Inhibition and Medicinal Chemistry, 2018)

Experiments:
[1] = DPPH radical scavenging activity
Experimental: Antioxidant activity was determined based on the ability of the antioxidants to act as radical scavengers towards the stable free radical, 1,1-diphenyl-2-picrylhydrazyl (DPPH). As detailed by Yang et al.[40], 1 ml of antioxidant solution (solubilised in ethanol) was added to 3 ml of a 0.1 mM ethanolic solution of DPPH. After 30 min at ambient temperature in darkness, absorbance readings were taken at 517 nm. Inhibition (%) was calculated using the equation [1–(As−Ao)/Ab]×100 where As is the absorbance reading for samples containing antioxidant, Ao is the absorbance of the antioxidant in pure methanol and Ab corresponded to the absorbance of the DPPH solution.

hCA I = hCA I (Homo sapiens, UniProt P00915); test: stopped flow CO2 hydrase assay, hCA I; type: biochemical; details: mean from three different assays, errors ±5–10%
Experimental: (§1) An applied photophysics stopped-flow instrument has been used for assaying the CA catalysed CO2 hydration activity by using method of Khalifah[34]. Phenol red (at a concentration of 0.2 mM) has been used as an indicator, working at the absorbance maximum of 557 nm, with 20 mM HEPES (pH 7.5) as buffer, and 20 mM Na2SO4 (for maintaining constant the ionic strength), following the initial rates of the CA-catalysed CO2 hydration reaction for a period of 10–100 s. The CO2 concentrations ranged from 1.7 to 17 mM for the determination of the kinetic parameters and inhibition constants. […] The uncatalysed rates were determined in the same manner and subtracted from the total observed rates. Stock solutions of inhibitor (0.1 mM) were prepared in distilled–deionised water and dilutions up to 0.01 nM were done thereafter with the assay buffer. Inhibitor and enzyme solutions were preincubated together for 15 min at room temperature prior to assay, in order to allow the formation of the E–I complex. The inhibition constants were obtained by non-linear least-square methods using PRISM (www.graphpad.com), and non-linear least squares methods, values representing the mean of at least three different determinations, as described earlier by us[35–39].

hCA II = hCA II (Homo sapiens, UniProt P00918); test: stopped flow CO2 hydrase assay, hCA II; type: biochemical; details: mean from three different assays, errors ±5–10%, read-out: KI hCAII
Experimental: as §1

hCA XIII = hCA XIII (Homo sapiens, UniProt Q8N1Q1); test: stopped flow CO2 hydrase assay, hCA XIII; type: biochemical; details: mean from three different assays, errors ±5–10%
Experimental: as §1

hCA V = hCA V (Homo sapiens, UniProt P35218); test: stopped flow CO2 hydrase assay, hCA V; type: biochemical; details: mean from three different assays, errors ±5–10%
Experimental: as §1

Chain of hCA I (P00915 whole entry): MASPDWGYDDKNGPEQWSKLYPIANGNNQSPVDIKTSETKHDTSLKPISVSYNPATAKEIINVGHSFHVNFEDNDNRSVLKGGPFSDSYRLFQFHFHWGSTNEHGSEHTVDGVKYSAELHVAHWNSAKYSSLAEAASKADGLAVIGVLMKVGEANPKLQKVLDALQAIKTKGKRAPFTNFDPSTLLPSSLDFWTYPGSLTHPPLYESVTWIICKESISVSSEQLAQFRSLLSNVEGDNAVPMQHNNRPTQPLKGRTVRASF
Chain of hCA XIII (Q8N1Q1 whole entry): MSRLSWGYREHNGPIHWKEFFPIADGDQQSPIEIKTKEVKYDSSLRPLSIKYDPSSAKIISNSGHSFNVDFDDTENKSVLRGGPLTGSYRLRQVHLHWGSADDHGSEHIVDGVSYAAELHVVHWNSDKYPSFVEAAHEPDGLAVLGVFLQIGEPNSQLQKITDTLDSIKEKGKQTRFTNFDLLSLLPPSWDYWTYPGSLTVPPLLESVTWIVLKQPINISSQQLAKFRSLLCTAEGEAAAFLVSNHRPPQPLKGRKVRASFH
Chain of hCA V (P35218 39-305): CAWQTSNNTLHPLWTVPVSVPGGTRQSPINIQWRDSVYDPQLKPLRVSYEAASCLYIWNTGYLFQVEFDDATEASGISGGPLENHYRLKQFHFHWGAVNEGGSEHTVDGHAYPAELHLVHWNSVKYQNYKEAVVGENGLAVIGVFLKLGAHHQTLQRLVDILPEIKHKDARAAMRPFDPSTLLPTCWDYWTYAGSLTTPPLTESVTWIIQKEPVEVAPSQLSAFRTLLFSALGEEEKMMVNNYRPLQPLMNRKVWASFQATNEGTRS

Row | Molecule | Antioxidant activity, % ([1]; 12.5 μg/ml) [%] | Antioxidant activity, % ([1]; 25 μg/ml) [%] | Antioxidant activity, % ([1]; 37.5 μg/ml) [%] | Antioxidant activity, % ([1]; 62.5 μg/ml) [%] | Antioxidant activity, % ([1]; 125 μg/ml) [%] | Ki (hCA I) [µM] | Ki (hCA II) [µM] | Ki (hCA XIII) [µM] | melting point [°C] | Ki (hCA V) [µM]
1 | COc1ccc(O)c(C(C)(C)C)c1 [BHA, reference compound] | 61.1 | 63.0 | 67.5 | 71.0 | 72.4 | – | – | – | – | –
2 | Cc1ccc2nc(NC(=O)CNC(=O)OCc3ccccc3)sc2c1 [Compound 1] | 0 | 0 | 0 | 11.4 | 12.5 | 4.3 | 32.1 | 94.6 | 213 to 214 | 4.3
3 | Cc1ccc2nc(NC(=O)CNC(=O)OC(C)(C)C)sc2c1 [Compound 2] | 0 | 0 | 3.9 | 4.6 | 6.1 | > 100 | 74.8 | > 100 | 212 to 213 | 65.5
4 | CCOc1ccc2nc(NC(=O)CNC(=O)OCc3ccccc3)sc2c1 [Compound 5] | 12.0 | 15.0 | 25.0 | 32.0 | 38.0 | > 100 | 82.3 | > 100 | 214 to 215 | > 100
5 | CCOc1ccc2nc(NC(=O)CNC(=O)OC(C)(C)C)sc2c1 [Compound 7] | 13.0 | 15.0 | 22.5 | 24.8 | 28.3 | > 100 | > 100 | > 100 | 171 to 172 | 60
6 | Cc1ccc2nc(NC(=O)CNC(=O)OCC3c4ccccc4-c4ccccc43)sc2c1 [Compound 9, (9H-Fluoren-9-yl)methyl (2-((6-methylbenzo[d]thiazol-2-yl)amino)-2-oxoethyl)carbamate] | 4 | 4.6 | 5.3 | 5.8 | 6.4 | 71.9 | > 100 | > 100 | 220 to 221 | 7.3
7 | CS(=O)(=O)c1ccc2nc(NC(=O)CNC(=O)OCC3c4ccccc4-c4ccccc43)sc2c1 [Compound 10, (9H-Fluoren-9-yl)methyl(2-((6-(methylsulfonyl)benzo[d]thiazol-2-yl)amino)-2-oxoethyl)carbamate] | 0 | 0 | 22.5 | 23.1 | 24.5 | 7.1 | > 100 | > 100 | – | 2.9
8 | Cc1cccc2sc(NC(=O)CNC(=O)OCC3c4ccccc4-c4ccccc43)nc12 [Compound 11, (9H-Fluoren-9-yl)methyl (2-((4-methylbenzo[d]thiazol-2-yl)amino)-2-oxoethyl)carbamate] | 5 | 6.7 | 6.9 | 7.1 | 8.2 | > 100 | 88.1 | > 100 | 218 to 219 | 74.5
9 | Cc1ccc2nc(-c3ccc(NC(=O)C(Cc4ccccc4)NC(=O)OCc4ccccc4)cc3)sc2c1 (centres unmarked) [Compound 12, Benzyl (1-((4–(6-methylbenzo[d]thiazol-2-yl)phenyl)amino)-1-oxo-3-phenylpropan-2-yl)carbamate] | 0 | 3 | 3.4 | 5.8 | 6.1 | > 100 | 37 | > 100 | 227 to 228 | > 100
10 | CSCCC(NC(=O)OCc1ccccc1)C(=O)Nc1ccc(-c2nc3ccc(C)cc3s2)cc1 (centres unmarked) [Compound 13, Benzyl (1-((4–(6-methylbenzo[d]thiazol-2-yl)phenyl)amino)-4-(methylthio)-1-oxobutan-2-yl)carbamate] | 5 | 6.7 | 6.1 | 7.1 | 8.2 | > 100 | 39.1 | 84.9 | 200 to 201 | 41.2
11 | Cc1c(C)c2c(c(C)c1O)CC[C@@](C)(CCC[C@H](C)CCC[C@H](C)CCCC(C)C)O2 [α-Toc., α-tocopherol, reference compound] | 62.9 | 63.4 | 68.4 | 72.8 | 74.0 | – | – | – | – | –
12 | Benzyl (3–(6-(methylsulfonyl)benzo[d]thiazol-2-yl)-2-oxopropyl)carbamate [Compound 8] | 0 | 2.1 | 6.6 | 19.2 | 20.7 | 89.9 | > 100 | > 100 | – | 9
13 | Benzyl (4–(6-ethoxybenzo[d]thiazol-2-yl)-3-oxo-1-phenylbutan-2-yl)carbamate [Compound 6] | 11.0 | 14.0 | 23.0 | 32.0 | 37.0 | > 100 | > 100 | > 100 | – | > 100
14 | Tert-butyl (4–(6-methylbenzo[d]thiazol-2-yl)-3-oxo-1-phenylbutan-2-yl)carbamate [Compound 4] | 0 | 5.7 | 5.8 | 9.6 | – | > 100 | > 100 | > 100 | – | > 100
15 | Tert-butyl (4–(6-methylbenzo[d]thiazol-2-yl)-3-oxobutan-2-yl)carbamate [Compound 3] | 3.3 | 3.4 | 5.3 | 7.5 | 7.7 | 90.5 | 50.4 | > 100 | – | 86.9
